Experimental data from PubChem BioAssay AID1845195 (Molecular Pharmacology Branch, DTP, NCI, 2023).

Test system: 156681-154-R-J1 tumor spheroid viability
Test: Anticancer human tumor 156681-154-R-J1 patient-derived melanoma cell line growth inhibition
Settings: spheroids with HUVEC and MSC; for IC50: curve of first compound; for viability, T/C: stronger effect = lower value
In short: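 Complex tumor spheroids combined malignant cells with endothelial cells and mesenchymal stem cells. DNA-damaging drugs and DNA repair inhibitors were tested alone and in combination, at half-log dilutions down from clinical Cmax (top 10 microM if Cmax unknown), 0.25% DMSO final.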
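Further: spheroids exposed to compounds for 7 days before readout.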
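Wherever viability, T/C is given: percent of vehicle control viability where 100% = DMSO-treated spheroids.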

Cn1ncnc1[C@H]1c2n[nH]c(=O)c3cc(F)cc(c23)N[C@@H]1c1ccc(F)cc1 + Cn1nnc2c(C(N)=O)ncn2c1=O
IC50 (second compound 1 µM): 971 nM
IC50 (second compound 3.16 µM): 591 nM
IC50 (second compound 10 µM): 270 nM
IC50 (second compound 31.6 µM): < 9.49 nM
IC50 (second compound 100 µM): < 9.49 nM
viability, T/C (second compound 1 µM, first compound 0.00949 µM): 78.4%
viability, T/C (second compound 1 µM, first compound 0.03 µM): 83.7%
viability, T/C (second compound 1 µM, first compound 0.0949 µM): 75%
viability, T/C (second compound 1 µM, first compound 0.3 µM): 72.7%
viability, T/C (second compound 1 µM, first compound 0.949 µM): 50.5%
viability, T/C (second compound 1 µM, first compound 3 µM): 16.6%
viability, T/C (second compound 3.16 µM, first compound 0.00949 µM): 69%
viability, T/C (second compound 3.16 µM, first compound 0.03 µM): 74.4%
viability, T/C (second compound 3.16 µM, first compound 0.0949 µM): 71%
viability, T/C (second compound 3.16 µM, first compound 0.3 µM): 64.1%
viability, T/C (second compound 3.16 µM, first compound 0.949 µM): 40%
viability, T/C (second compound 3.16 µM, first compound 3 µM): 15.2%
viability, T/C (second compound 10 µM, first compound 0.00949 µM): 81.1%
viability, T/C (second compound 10 µM, first compound 0.03 µM): 88.4%
viability, T/C (second compound 10 µM, first compound 0.0949 µM): 54.6%
viability, T/C (second compound 10 µM, first compound 0.3 µM): 50%
viability, T/C (second compound 10 µM, first compound 0.949 µM): 33.7%
viability, T/C (second compound 10 µM, first compound 3 µM): 13.6%
viability, T/C (second compound 31.6 µM, first compound 0.00949 µM): 44.4%
viability, T/C (second compound 31.6 µM, first compound 0.03 µM): 35.4%
viability, T/C (second compound 31.6 µM, first compound 0.0949 µM): 34.9%
viability, T/C (second compound 31.6 µM, first compound 0.3 µM): 29.6%
viability, T/C (second compound 31.6 µM, first compound 0.949 µM): 17%
viability, T/C (second compound 31.6 µM, first compound 3 µM): 18%
viability, T/C (second compound 100 µM, first compound 0.00949 µM): 16.3%
viability, T/C (second compound 100 µM, first compound 0.03 µM): 14.4%
viability, T/C (second compound 100 µM, first compound 0.0949 µM): 12.2%
viability, T/C (second compound 100 µM, first compound 0.3 µM): 11.3%
viability, T/C (second compound 100 µM, first compound 0.949 µM): 14%
viability, T/C (second compound 100 µM, first compound 3 µM): 14.4%

COc1cc(C)[nH]c(=O)c1CN1CCc2c(Cl)cc(C(OC)C3COC3)c(Cl)c2C1=O (stereo not given) + CC[C@@]1(O)C(=O)OCc2c1cc1n(c2=O)Cc2cc3c(CN(C)C)c(O)ccc3nc2-1
IC50 (second compound 0.003 µM): > 10000 nM
IC50 (second compound 0.00949 µM): > 10000 nM
IC50 (second compound 0.03 µM): > 10000 nM
IC50 (second compound 0.0949 µM): < 31.6 nM
IC50 (second compound 0.3 µM): < 31.6 nM
viability, T/C (second compound 0.003 µM, first compound 0.0316 µM): 106%
viability, T/C (second compound 0.003 µM, first compound 0.1 µM): 93.3%
viability, T/C (second compound 0.003 µM, first compound 0.316 µM): 120%
viability, T/C (second compound 0.003 µM, first compound 1 µM): 99%
viability, T/C (second compound 0.003 µM, first compound 3.16 µM): 95.3%
viability, T/C (second compound 0.003 µM, first compound 10 µM): 96.8%
viability, T/C (second compound 0.00949 µM, first compound 0.0316 µM): 105%
viability, T/C (second compound 0.00949 µM, first compound 0.1 µM): 83.2%
viability, T/C (second compound 0.00949 µM, first compound 0.316 µM): 91.6%
viability, T/C (second compound 0.00949 µM, first compound 1 µM): 88.7%
viability, T/C (second compound 0.00949 µM, first compound 3.16 µM): 84.7%
viability, T/C (second compound 0.00949 µM, first compound 10 µM): 92.3%
viability, T/C (second compound 0.03 µM, first compound 0.0316 µM): 80.4%
viability, T/C (second compound 0.03 µM, first compound 0.1 µM): 71.1%
viability, T/C (second compound 0.03 µM, first compound 0.316 µM): 77%
viability, T/C (second compound 0.03 µM, first compound 1 µM): 86.3%
viability, T/C (second compound 0.03 µM, first compound 3.16 µM): 77.7%
viability, T/C (second compound 0.03 µM, first compound 10 µM): 84.9%
viability, T/C (second compound 0.0949 µM, first compound 0.0316 µM): 28.8%
viability, T/C (second compound 0.0949 µM, first compound 0.1 µM): 31.6%
viability, T/C (second compound 0.0949 µM, first compound 0.316 µM): 34.6%
viability, T/C (second compound 0.0949 µM, first compound 1 µM): 32.3%
viability, T/C (second compound 0.0949 µM, first compound 3.16 µM): 32.5%
viability, T/C (second compound 0.0949 µM, first compound 10 µM): 49.5%
viability, T/C (second compound 0.3 µM, first compound 0.0316 µM): 38.6%
viability, T/C (second compound 0.3 µM, first compound 0.1 µM): 42.4%
viability, T/C (second compound 0.3 µM, first compound 0.316 µM): 38.1%
viability, T/C (second compound 0.3 µM, first compound 1 µM): 39.4%
viability, T/C (second compound 0.3 µM, first compound 3.16 µM): 40.1%
viability, T/C (second compound 0.3 µM, first compound 10 µM): 38.2%
